{"source": "patent US20090082333A1", "about": "“REMEDY FOR XANTHOMA” (NATIONAL UNIVERSITY CORPORATION KOBE UNIVERSITY, priority 2005, published 2009)", "system": "WHHLMI rabbit", "assay": "Xanthomatosis-inhibiting activity in rabbit model (extent of limb xanthoma at digital joints)", "format": "in vivo", "details": "male WHHLMI rabbit, digital joints of forelegs and hind legs; for Distribution of Severity: − (no occurrence), count of limb xanthoma assessments: control 2; for Distribution of Severity: +++ (mass), count of limb xanthoma assessments: control 4; for Distribution of Severity: + (dotting of granule), count of limb xanthoma assessments: control 8; for Distribution of Severity: ++ (scattering), count of limb xanthoma assessments: control 26", "description": "A vehicle or the test compound 1 was orally administered to a 2 months old male WHHLMI rabbit (10 to 11 animals/group) in an amount of 100, 200 mg/kg in a mixed diet for 32 weeks. After the administration for 32 weeks, xanthoma was evaluated at the digital joints of forelegs and hind legs (Table 1). The extent of limb xanthoma was assessed by classifying into four stages: no occurrence (−), dotting of granule (+), scattering (++), mass (+++)", "key": {"[1]": {"details": "100 mg/kg orally in mixed diet for 32 weeks"}, "[2]": {"details": "200 mg/kg orally in mixed diet for 32 weeks"}}, "data": [{"molecule": "COc1cccc([C@H]2O[C@H](CC(=O)N3CCC(CC(=O)O)CC3)C(=O)N(CC(C)(C)COC(C)=O)c3ccc(Cl)cc32)c1OC", "note": "[Test compound 1, N-{[(3R,5S)-1-(3-acetoxy-2,2-dimethylpropyl)-7-chloro-5-(2,3-dimethoxyphenyl)-2-oxo-1,2,3,5-tetrahydro-4,1-benzoxazepin-3-yl}acetyl}piperidine-4-acetic acid]", "values": [{"measurement": "Distribution of Severity: − (no occurrence), count of limb xanthoma assessments", "setting": "[1]", "result": 4}, {"measurement": "Distribution of Severity: +++ (mass), count of limb xanthoma assessments", "setting": "[1]", "result": 0}, {"measurement": "Distribution of Severity: + (dotting of granule), count of limb xanthoma assessments", "setting": "[1]", "result": 13}, {"measurement": "Distribution of Severity: ++ (scattering), count of limb xanthoma assessments", "setting": "[1]", "result": 27}, {"measurement": "Distribution of Severity: − (no occurrence), count of limb xanthoma assessments", "setting": "[2]", "result": 0}, {"measurement": "Distribution of Severity: +++ (mass), count of limb xanthoma assessments", "setting": "[2]", "result": 0}, {"measurement": "Distribution of Severity: + (dotting of granule), count of limb xanthoma assessments", "setting": "[2]", "result": 29}, {"measurement": "Distribution of Severity: ++ (scattering), count of limb xanthoma assessments", "setting": "[2]", "result": 15}]}]}
